What was measured:
Format in all cases: cell-based, human
[1] = test system: Notch signaling; assay: Notch inhibition in pancreatic progenitor cells in Disque platform (DP), qRT-PCR gene expression; settings: 10 μM, 4 days, cells cultured in DP
Description: (§1) Next, Applicant further examined whether other junction signaling pathways critical for β-cell differentiation, such as the Notch signaling pathway, could be supported in the DP, as Notch inhibition in pancreatic progenitor cells is known to promote differentiation into the endocrine lineage and β-cell production. To measure this in the DP, Applicant supplemented the differentiation protocol of pancreatic progenitor cells with Notch inhibitor (NI) [γ-secretase inhibitor, N—[N-(3,5-Difluorophenacetyl)-L-alanyl]-S-phenylglycine t-butyl ester (DAPT) (10 μM)] and examined the cells at the end of pancreatic progenitor cells (stage 4 day 5 (S4d5)) by immunocytochemistry and gene expression analysis (FIGS. 8A-8D). […]
(§2) Compound treatment. […] For the dose-cytotoxicity study, cell viability was measured by AlamarBlue™ assay following the manufacturer's protocol (Invitrogen, Carlsbad, CA, USA).
(§3) Gene Expression Analysis. […] The RNA concentration was determined by measuring absorbance at 260 nm using a spectrophotometer. […] The profiles of gene expression in SC β-cells were quantified for each target (human E-cad, CX-36, ZnT8, Pdx-1, Nkx6.1, Insulin, and glyceraldehyde 3-phosphate dehydrogenase (GAPDH), QuantiTect primary assay). The expression level of target genes was determined by the comparative Ct method, whereby the target is normalized to the endogenous reference (GAPDH) 40. […]

[2] = test system: pancreatic progenitor cells; assay: Notch inhibition in DP, immunocytochemical staining for Pdx-1 and Nkx6.1; settings: 10 μM, S4d5
Description: Next, Applicant further examined whether other junction signaling pathways critical for β-cell differentiation, such as the Notch signaling pathway, could be supported in the DP, as Notch inhibition in pancreatic progenitor cells is known to promote differentiation into the endocrine lineage and β-cell production. To measure this in the DP, Applicant supplemented the differentiation protocol of pancreatic progenitor cells with Notch inhibitor (NI) [γ-secretase inhibitor, N—[N-(3,5-Difluorophenacetyl)-L-alanyl]-S-phenylglycine t-butyl ester (DAPT) (10 μM)] and examined the cells at the end of pancreatic progenitor cells (stage 4 day 5 (S4d5)) by immunocytochemistry and gene expression analysis (FIGS. 8A-8D). […] Upon establishing the differentiation capabilities of the DP, Applicant then reasoned whether differentiated SC β cells also elicited proper insulin secretion functionality. The DP also supported insulin secretion from SC β cells in response to glucose stimulation, and similar secretion indices were noted between DP and SF (FIG. 3J).
Compound treatment. Cells were seeded into the DP and incubated with their respective media as outlined in the section above and allowed to settle for 24 hours (day 1). […] For the dose-cytotoxicity study, cell viability was measured by AlamarBlue™ assay following the manufacturer's protocol (Invitrogen, Carlsbad, CA, USA). […]

[3] = test system: Notch signaling; assay: Notch inhibition in 2D culture, Hes1 gene expression; settings: 10 μM
Description: as §1, §2, §3

[4] = test system: DYRKIA; assay: NFAT1 nuclear translocation as readout for DYRKIA inhibition
Protocol: Immunocytochemical staining. The Immunofluorescent staining was performed as previously described in the Flow cytometry section. The additional primary antibodies for immunocytochemical staining were used: rabbit polyclonal anti-NFAT1 (1:500, ab244310, Abcam, Cambridge, MA, USA), mouse monoclonal anti-E-cadherin (1:500, Abcam) and rabbit polyclonal anti-connexin 36 (1:500, Abcam). Secondary antibodies were stained using previously described antibodies noted within the flow cytometry method. Cells were then counter-stained with 4′, 6-Diamidino-2-phenylindole (DAPI, MilliporeSigma, Burlington, MA, USA) or 2,5′-Bi-1H-benzimidazole (Hoechst, Invitrogen). HTS imaging was performed using the Opera Phenix™ High Content Screening System (PerkinElmer, Waltham, MA, USA). Fluorescent and bright-field imaging were performed using the Eclipse TE2000-U (Nikon, Tokyo, Japan). Confocal imaging and z-stack 3D reconstruction were performed using LSM 800 with Airyscan (Zeiss, Oberkochen, Germany). Analysis was performed using ImageJ (NIH) and Adobe Photoshop (Adobe, San Jose, CA, USA) software.

[5] = test system: SC β cells; assay: Dose-cytotoxicity study, AlamarBlue assay; settings: 0.032~500 μM
Protocol: Compound treatment. […] For compound treatment (ZnPDs and small molecule cargos), the media were replaced with new media supplemented with prodrug at different concentrations on day 3 and day 6 for a total treatment of 6 days. Cell analyses was performed after 7 days in culture. […] For the dose-cytotoxicity study, cell viability was measured by AlamarBlue™ assay following the manufacturer's protocol (Invitrogen, Carlsbad, CA, USA).
Cell viability test. To determine the viability of SC β-cells in the DP and SF, a Live/Dead Viability and Cytotoxicity Assay Kit (AlamarBlue™, Invitrogen) were used according to the manufacturer's instructions.

[6] = test system: SC β cells; assay: Proliferation of SC β cells in DP (EdU or Ki67, flow cytometry)
Protocol: Applicant then compared ZnPD6 and harmine over the range of 0.625 to 20 μM based on the percentage of proliferating mature SC β cells using the c-peptide/EdU co-positive metric, wherein EdU is a proliferation marker that identifies cells undergoing DNA replication in the S phase (FIG. 5D). […] Despite releasing the same drug following ZnPD cleavage, Applicant were interested in determining what caused the difference in cytotoxicity and proliferation between ZnPD6 and unmodified harmine. Applicant then examined harmine and ZnPD6 at their optimal concentrations for proliferation, 10 μM and 20 μM, respectively.
Compound treatment. Cells were seeded into the DP and incubated with their respective media as outlined in the section above and allowed to settle for 24 hours (day 1). For compound treatment (ZnPDs and small molecule cargos), the media were replaced with new media supplemented with prodrug at different concentrations on day 3 and day 6 for a total treatment of 6 days. Cell analyses was performed after 7 days in culture. For targeting study with ZnPD4, cells were treated with ZnPD4 for 2 hours. […] For the dose-cytotoxicity study, cell viability was measured by AlamarBlue™ assay following the manufacturer's protocol (Invitrogen, Carlsbad, CA, USA).
Flow cytometry. […] Cells were analyzed using a BD FACSAria™ II flow cytometer (BD Biosciences, Franklin Lakes, NJ, USA). […]

| Structure (SMILES) | increase in Pdx-1 expression ([1]; S4d5, vs control) | decrease in hairy and enhancer of split-1 (Hes1) expression ([1]; vs control) | Pdx-1-positive progenitor cells after Notch inhibition [2] | Hes1 expression response to Notch inhibition [3] | NFAT1 nuclear translocation over time, in words ([4]; FIG. 5H) | NFAT1 nuclear translocation ([4]; at 24 hours) | NFAT1 nuclear translocation ([4]; value before the decrease) | concentration above which a cytotoxic effect is seen [5] | population of proliferating monohormonal SC β cells (C-peptide+GCG-EdU+) ([6]; DP, flow cytometry, compared to DMSO control or negative control) | optimal concentration for proliferation ([6]; SC β cells in DP) |
| --- | --- | --- | --- | --- | --- | --- | --- | --- | --- | --- |
| C[C@H](NC(=O)Cc1cc(F)cc(F)c1)C(=O)N[C@H](C(=O)OC(C)(C)C)c1ccccc1 [DAPT, N—[N-(3,5-Difluorophenacetyl)-L-alanyl]-S-phenylglycine t-butyl ester] | 80% | 71% | significantly increased | not responsive |  |  |  |  |  |  |
| COc1ccc2c(c1)[nH]c1c(C)nccc12 [harmine] |  |  |  |  | decreased NFAT1 nuclear translocation after 4 hours | 15% | 26% | over 10 μM | statistically significant increase | 10 µM |

From US12473537B2, “Three-dimensional cell culture, devices, and use thereof” (THE BROAD INSTITUTE, INC., priority 2020, dated 2025)
